Test results: ChEMBL document CHEMBL3751685, “Borrelidin Induces the Unfolded Protein Response in Oral Cancer Cells and Chop-Dependent Apoptosis” (ACS Med Chem Lett, 2015)
Active and inactive are the calls of the source. No cut-off for these calls is given here.

Experiments:
UMSCC1 [1] = assay: Inhibition of cell proliferation in human UMSCC1 cells for 24 hrs by Celltiter Glo assay; type: functional, cell-based
[2] = target: T1, Threonine--tRNA ligase 1, cytoplasmic (Homo sapiens) (UniProt P26639); assay: Inhibition of ThRS in human UMSCC1 cells assessed as increase in CHOP mRNA level at 5 uM after 6 hrs by RT-qPCR analysis; type: cell-based
T1 sequence (whole entry): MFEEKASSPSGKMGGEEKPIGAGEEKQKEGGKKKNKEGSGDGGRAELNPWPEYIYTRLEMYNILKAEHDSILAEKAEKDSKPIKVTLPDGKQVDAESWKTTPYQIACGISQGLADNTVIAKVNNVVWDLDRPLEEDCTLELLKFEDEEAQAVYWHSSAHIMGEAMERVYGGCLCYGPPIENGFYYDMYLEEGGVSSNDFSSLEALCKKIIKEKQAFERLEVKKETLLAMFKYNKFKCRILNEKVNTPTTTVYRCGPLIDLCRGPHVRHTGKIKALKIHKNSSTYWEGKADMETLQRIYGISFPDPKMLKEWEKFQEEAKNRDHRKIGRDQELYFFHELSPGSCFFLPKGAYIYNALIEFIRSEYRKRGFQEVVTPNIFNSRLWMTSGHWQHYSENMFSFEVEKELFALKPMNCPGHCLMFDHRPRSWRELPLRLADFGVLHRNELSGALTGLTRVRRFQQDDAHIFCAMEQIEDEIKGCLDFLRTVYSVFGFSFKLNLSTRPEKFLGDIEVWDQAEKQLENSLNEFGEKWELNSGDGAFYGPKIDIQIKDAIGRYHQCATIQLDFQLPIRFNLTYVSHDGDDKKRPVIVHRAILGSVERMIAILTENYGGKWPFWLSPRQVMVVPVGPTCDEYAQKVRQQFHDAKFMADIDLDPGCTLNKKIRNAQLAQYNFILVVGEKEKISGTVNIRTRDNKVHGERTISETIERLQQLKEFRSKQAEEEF

[3] = target: T1, Threonine--tRNA ligase 1, cytoplasmic (Homo sapiens); assay: Inhibition of ThRS in human UMSCC1 cells assessed as increase in ATF3 mRNA level at 5 uM after 6 hrs by RT-qPCR analysis; type: cell-based
[4] = target: T1, Threonine--tRNA ligase 1, cytoplasmic (Homo sapiens); assay: Inhibition of ThRS in human UMSCC1 cells assessed as increase in ATF4 mRNA level at 5 uM after 6 hrs by RT-qPCR analysis; type: cell-based
[5] = target: T1, Threonine--tRNA ligase 1, cytoplasmic (Homo sapiens); assay: Inhibition of ThRS in human UMSCC1 cells assessed as increase in XBP1 splicing by RT-PCR analysis; type: cell-based
UMSCC14A = assay: Inhibition of cell proliferation in human UMSCC14A cells for 24 hrs by Celltiter Glo assay; type: functional, cell-based
UMSCC23 = assay: Inhibition of cell proliferation in human UMSCC23 cells for 24 hrs by Celltiter Glo assay; type: functional, cell-based
[6] = Cytotoxicity against HEK cells after 24 hrs by CelltiterGlo assay; type: cell-based; conditions: human, hek293, 24 h
[7] = target: T1, Threonine--tRNA ligase 1, cytoplasmic (Homo sapiens); assay: Inhibition of ThRS in human UMSCC1 cells assessed as increase in UPR-related gene expression at 10 uM by RT-PCR analysis; type: cell-based
[8] = target: T1, Threonine--tRNA ligase 1, cytoplasmic (Homo sapiens); assay: Inhibition of ThRS in human UMSCC1 cells assessed as increase in DNA damaging-related gene expression at 10 uM by RT-PCR analysis; type: cell-based
[9] = target: T1, Threonine--tRNA ligase 1, cytoplasmic (Homo sapiens); assay: Inhibition of ThRS in human UMSCC1 cells assessed as increase in apoptosis-related gene expression at 10 uM by RT-PCR analysis; type: cell-based
UMSCC1 [10] = assay: Effect on Bip/GRP78 mRNA level in human UMSCC1 cells at 5 uM after 6 hrs by RT-qPCR analysis; type: functional, cell-based
A549 = assay: Inhibition of cell proliferation in human A549 cells expressing BAX/BAK (-/-) after 24 hrs by CelltiterGlo assay; type: functional, cell-based
MEF [11] = assay: Inhibition of cell proliferation in mouse MEF cells expressing eIF2alpha Ser51Ala mutant after 16 hrs Celltiter Glo assay; type: functional, cell-based
MEF [12] = assay: Inhibition of cell proliferation in mouse MEF cells expressing Chop(-/-) after 16 hrs Celltiter Glo assay; type: functional, cell-based
MEF [13] = assay: Inhibition of cell proliferation in mouse MEF cells expressing Atf4(-/-) after 16 hrs CelltiterGlo assay; type: functional, cell-based
MEF [14] = assay: Inhibition of cell proliferation in mouse MEF cells expressing Hri(-/-) after 16 hrs CelltiterGlo assay; type: functional, cell-based
MEF [15] = assay: Inhibition of cell proliferation in mouse MEF cells expressing Pkr(-/-) after 16 hrs CelltiterGlo assay; type: functional, cell-based
[16] = target: T2, Threonine--tRNA ligase 1, cytoplasmic (Mus musculus) (UniProt Q9D0R2); conditions: MEF, 5 uM
T2 sequence (whole entry): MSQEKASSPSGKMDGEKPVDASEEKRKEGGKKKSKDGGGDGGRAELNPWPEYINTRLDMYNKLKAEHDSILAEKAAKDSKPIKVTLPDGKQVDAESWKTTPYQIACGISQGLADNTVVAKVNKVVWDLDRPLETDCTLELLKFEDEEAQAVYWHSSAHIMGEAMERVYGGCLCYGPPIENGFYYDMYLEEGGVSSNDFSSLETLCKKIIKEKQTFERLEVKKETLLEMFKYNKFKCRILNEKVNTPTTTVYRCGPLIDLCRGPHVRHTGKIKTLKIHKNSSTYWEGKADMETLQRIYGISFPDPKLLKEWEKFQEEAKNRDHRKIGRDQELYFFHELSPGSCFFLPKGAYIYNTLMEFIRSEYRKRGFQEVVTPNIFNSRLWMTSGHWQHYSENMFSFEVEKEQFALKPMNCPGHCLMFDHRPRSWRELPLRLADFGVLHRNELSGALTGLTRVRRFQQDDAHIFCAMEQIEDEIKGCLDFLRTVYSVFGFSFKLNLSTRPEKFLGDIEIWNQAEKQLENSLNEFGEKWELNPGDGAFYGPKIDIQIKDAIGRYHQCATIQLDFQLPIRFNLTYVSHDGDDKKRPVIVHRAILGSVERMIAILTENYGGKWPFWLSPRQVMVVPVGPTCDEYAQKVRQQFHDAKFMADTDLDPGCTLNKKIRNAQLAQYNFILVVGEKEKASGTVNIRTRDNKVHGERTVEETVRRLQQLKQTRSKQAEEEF
Description: Inhibition of ThRs in mouse MEF cells expressing Perk (-/-) assessed as effect on phosphorylated eIF2alpha level at 5 uM by immunoblot analysis

[17] = target: T2, Threonine--tRNA ligase 1, cytoplasmic (Mus musculus); conditions: MEF, 5 uM; remark: listed apart in the source
Description: Inhibition of ThRs in mouse MEF cells expressing Perk (-/-) assessed as effect on Chop level at 5 uM by immunoblot analysis

[18] = target: T2, Threonine--tRNA ligase 1, cytoplasmic (Mus musculus); conditions: MEF, 5 uM; remark: listed apart in the source
Description: Inhibition of ThRs in mouse MEF cells expressing Gcn2 (-/-) assessed as effect on phosphorylated eIF2alpha level at 5 uM by immunoblot analysis

[19] = target: T2, Threonine--tRNA ligase 1, cytoplasmic (Mus musculus); conditions: MEF, 5 uM; remark: listed apart in the source
Description: Inhibition of ThRs in mouse MEF cells expressing Gcn2 (-/-) assessed as effect on Chop level at 5 uM by immunoblot analysis

[20] = target: T2, Threonine--tRNA ligase 1, cytoplasmic (Mus musculus); conditions: MEF, 5 uM; remark: listed apart in the source
Description: Inhibition of ThRs in mouse MEF cells expressing Gcn2 (-/-) assessed as effect on Noxa mRNA level at 5 uM by RT-PCR analysis

[21] = target: T2, Threonine--tRNA ligase 1, cytoplasmic (Mus musculus); conditions: MEF, 5 uM; remark: listed apart in the source
Description: Inhibition of ThRs in mouse MEF cells expressing Gcn2 (-/-) assessed as effect on Puma mRNA level at 5 uM by RT-PCR analysis

[22] = target: T2, Threonine--tRNA ligase 1, cytoplasmic (Mus musculus); conditions: MEF, 5 uM; remark: listed apart in the source
Description: Inhibition of ThRs in mouse MEF cells expressing Gcn2 (-/-) assessed as effect on Gadd45beta mRNA level at 5 uM by RT-PCR analysis

[23] = target: T2, Threonine--tRNA ligase 1, cytoplasmic (Mus musculus); conditions: MEF, 5 uM; remark: listed apart in the source
Description: Inhibition of ThRs in mouse MEF cells expressing Gcn2 (-/-) assessed as effect on Trb3 mRNA level at 5 uM by RT-PCR analysis

[24] = target: T2, Threonine--tRNA ligase 1, cytoplasmic (Mus musculus); conditions: MEF, 5 uM; remark: listed apart in the source
Description: Inhibition of ThRs in mouse MEF cells expressing Gcn2 (-/-) assessed as effect on Dr5 mRNA level at 5 uM by RT-PCR analysis

Activity [2] | Activity [3] | Activity [4] | Activity [5] | Activity [7] | Activity [8] | Activity [9] | Structure (SMILES) | inhibition (UMSCC1 [1]) | inhibition (UMSCC14A) | inhibition (UMSCC23) | Activity [6] | Activity (UMSCC1 [10]) | further results
inactive | inactive | inactive | inactive | inactive | inactive | inactive | CC(=O)NC/C1=C/C=C/C[C@@H]([C@@H]2CCC[C@H]2C(N)=O)OC(=O)C[C@H](O)[C@@H](C)C[C@@H](C)C[C@@H](C)C[C@H](C)[C@H]1O | inactive | inactive | inactive | Toxic |  | 
Active | Active | Active | Active | inactive | inactive | inactive | C[C@@H]1C[C@H](C)C[C@H](C)[C@@H](O)CC(=O)O[C@H]([C@@H]2CCC[C@H]2C(N)=O)C/C=C/C=C(/C#N)[C@H](O)[C@@H](C)C1 | Active | Active | Active | Toxic | inactive | 

Structure (SMILES) | Activity [2] | Activity [3] | Activity [4] | Activity [5] | Activity [7] | Activity [8] | Activity [9] | inhibition (UMSCC1 [1]) | inhibition (UMSCC14A) | inhibition (UMSCC23) | Activity [6] | Activity (UMSCC1 [10]) | further results
C[C@@H]1C[C@H](C)C[C@H](C)[C@@H](O)CC(=O)O[C@H]([C@@H]2CCC[C@H]2C(=O)O)C/C=C/C=C(/C#N)[C@H](O)[C@@H](C)C1 [BORRELIDIN] | Active | Active | Active | Active | Active | Active | Active | Active | Active | Active | Toxic | inactive | inhibition (A549): inactive; inhibition (MEF [11]): Active; inhibition (MEF [12]): inactive; inhibition (MEF [13]): inactive; inhibition (MEF [14]): inactive; inhibition (MEF [15]): inactive; inhibition [16]: inactive; inhibition [17]: inactive; inhibition [18]: inactive; inhibition [19]: inactive; inhibition [20]: inactive; inhibition [21]: inactive; inhibition [22]: inactive; inhibition [23]: inactive; inhibition [24]: inactive
